The values that follow come from patent publication EP1214299B1, “MUSCARINIC ANTAGONISTS” (SCHERING CORPORATION, priority 1999, dated 2001).

One may read the Ki as the equilibrium dissociation constant of an inhibitor or competing ligand from its target.

One test deals with T1, m5 (Homo sapiens, UniProt P08912).
T1 sequence (P08912 1-532): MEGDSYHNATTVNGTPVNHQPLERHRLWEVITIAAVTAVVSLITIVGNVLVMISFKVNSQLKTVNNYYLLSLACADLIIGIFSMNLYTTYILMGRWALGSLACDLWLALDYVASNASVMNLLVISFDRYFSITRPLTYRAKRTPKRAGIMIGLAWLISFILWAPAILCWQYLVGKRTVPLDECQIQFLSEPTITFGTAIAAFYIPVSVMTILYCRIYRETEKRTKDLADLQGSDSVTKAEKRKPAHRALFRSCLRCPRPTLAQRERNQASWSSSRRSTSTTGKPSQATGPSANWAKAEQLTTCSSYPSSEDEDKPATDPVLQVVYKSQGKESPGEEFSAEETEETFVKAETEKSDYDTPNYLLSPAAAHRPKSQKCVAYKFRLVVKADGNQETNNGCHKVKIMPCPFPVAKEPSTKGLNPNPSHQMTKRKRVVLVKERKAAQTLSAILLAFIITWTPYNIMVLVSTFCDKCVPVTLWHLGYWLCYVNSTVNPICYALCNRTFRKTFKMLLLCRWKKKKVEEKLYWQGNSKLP
As to conditions: read-out: m5 Ki.

For another test, the system named is Acetylcholine (ACh). Briefly: Microdialysis (ACh in striatal microdialysate). In kind it is in vivo, male Sprague-Dawley Rats. As to conditions: dose of 10 mg/kg PO; ACh in rat striatum microdialysate. The method, then: The skull was exposed and drilled through to the dura at a point 0.2 mm anterior and 3.0 mm lateral to the bregma. At these coordinates, a guide cannula was positioned at the outer edge of the dura through the drilled opening, lowered perpendicularly to a depth of 2.5 mm, and permanent!y secured with dental cement to bone screws. Following the surgery, rats were given ampicillin (40 mg/kg, ip) and individually housed in modified cages. A recovery period of approximately 3 to 7 days was allowed before the microdialysis procedure was undertaken. • Microdialysis: All of the equipment and instrumentation used to conduct in vivo microdialysis was obtained from Bioanalytical Systems, Inc. (BAS). The microdialysis procedure involved the insertion through the guide cannula of a thin, needle-like perfusable probe (CMA/12,3 mm x 0.5 mm) to a depth of 3 mm in striatum beyond the end of the guide. The probe was connected beforehand with tubing to a microinjection pump (CMA/ 100). Rats were collared, tethered, and, following probe insertion, were placed in a large, clear, plexiglass bowl with litter material and access to food and water. The probe was perfused at 2 µl/min with Ringer's buffer (NaCl 147 mM; KCl 3.0 mM; CaCl2 1.2 mM; MgCl2 1.0 mM) containing 5.5 mM glucose, 0.2 mM L-ascorbate, and 1 µM neostigmine bromide at pH 7.4). To achieve stable baseline readings, microdialysis was allowed to proceed for 90 minutes prior to the collection of fractions. Fractions (20 µl) were obtained at 10 minute intervals over a 3 hour period using a refrigerated collector (CMA/170 or 200). Four to five baseline fractions were collected, following which the drug or combination of drugs to be tested was administered to the animal. Upon completion of the collection, each rat was autopsied to determine accuracy of probe placement. • Acetylcholine (ACh) analysis: The concentration of ACh in collected samples of microdialysate was determined using HPLC/electrochemical detection. Samples were auto-injected (Waters 712 Refrigerated Sample Processor) onto a polymeric analytical HPLC column (BAS, MF-6150) and eluted with 50 mM Na2HPO4, pH 8.5. To prevent bacterial growth, Kathon CG reagent (0.005%) (BAS) was included in the mobile phase. Eluent from the analytical column, containing separated ACh and choline, was then immediately passed through an immobilized enzyme reactor cartridge (BAS, MF-6151) coupled to the column outlet. The reactor contained both acetylcholinesterase and choline oxidase covalently bound to a polymeric backbone. […] Data acquisition was carried out using an IBM Model 70 computer equipped with a microchannel IEEE board. Integration and quantification of peaks were accomplished using "Maxima" chromatography software (Waters Corporation). Total run time per sample was 11 minutes at a flow rate of 1 ml/min. Retention times for acetylcholine and choline were 6.5 and 7.8 minutes, respectively. To monitor and correct for possible changes in detector sensitivity during chromatography, ACh standards were included at the beginning, middle and end of each sample queue.
Increases in ACh levels are consistent with presynaptic m2 receptor antagonism.
Data for representative and/or preferred compounds of the present invention are as follows (compounds were administered at a dose of 10 mg/kg PO): […]

Test [1] concerns the target human m3 muscarinic receptor (Homo sapiens, UniProt P20309). As to conditions: read-out: m3 Ki; membranes from stably transfected CHO cell lines, 3H-QNB.
In test [2] the target is human m1 muscarinic receptor (Homo sapiens, UniProt P11229). Description: biochemical. In kind it is binding.
human m1 muscarinic receptor, sequence (P11229 whole entry): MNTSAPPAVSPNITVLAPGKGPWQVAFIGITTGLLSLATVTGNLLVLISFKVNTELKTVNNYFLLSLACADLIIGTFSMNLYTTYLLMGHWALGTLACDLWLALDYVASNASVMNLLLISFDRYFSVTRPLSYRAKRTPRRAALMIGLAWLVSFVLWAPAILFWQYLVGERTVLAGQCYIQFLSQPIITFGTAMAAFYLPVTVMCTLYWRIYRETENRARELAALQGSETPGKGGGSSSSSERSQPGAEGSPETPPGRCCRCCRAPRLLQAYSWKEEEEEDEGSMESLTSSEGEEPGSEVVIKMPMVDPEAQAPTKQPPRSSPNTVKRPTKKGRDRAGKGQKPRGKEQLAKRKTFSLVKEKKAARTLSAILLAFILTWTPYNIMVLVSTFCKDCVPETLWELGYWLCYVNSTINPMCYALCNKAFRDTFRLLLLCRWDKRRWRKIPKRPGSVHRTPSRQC
In test [3] the target is human m4 muscarinic receptor (Homo sapiens, UniProt P08173). Description: biochemical. In kind it is binding.
human m4 muscarinic receptor, sequence (P08173 whole entry): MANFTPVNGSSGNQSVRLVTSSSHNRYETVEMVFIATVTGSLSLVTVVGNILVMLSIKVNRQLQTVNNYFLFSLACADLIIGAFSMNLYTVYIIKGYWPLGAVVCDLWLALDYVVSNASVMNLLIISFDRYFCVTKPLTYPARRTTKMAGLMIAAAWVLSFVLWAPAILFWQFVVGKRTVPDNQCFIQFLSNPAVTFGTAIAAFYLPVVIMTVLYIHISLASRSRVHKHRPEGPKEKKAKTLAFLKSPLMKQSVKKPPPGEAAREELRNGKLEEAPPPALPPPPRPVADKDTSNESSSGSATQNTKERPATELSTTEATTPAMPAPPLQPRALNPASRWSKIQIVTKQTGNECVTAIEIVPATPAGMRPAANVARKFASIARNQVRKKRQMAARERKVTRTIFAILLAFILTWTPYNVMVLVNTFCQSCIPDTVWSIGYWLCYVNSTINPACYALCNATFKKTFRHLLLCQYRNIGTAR

Like-named read-outs stand apart in the source and are kept apart here.

human m3 muscarinic receptor, sequence (P20309 whole entry): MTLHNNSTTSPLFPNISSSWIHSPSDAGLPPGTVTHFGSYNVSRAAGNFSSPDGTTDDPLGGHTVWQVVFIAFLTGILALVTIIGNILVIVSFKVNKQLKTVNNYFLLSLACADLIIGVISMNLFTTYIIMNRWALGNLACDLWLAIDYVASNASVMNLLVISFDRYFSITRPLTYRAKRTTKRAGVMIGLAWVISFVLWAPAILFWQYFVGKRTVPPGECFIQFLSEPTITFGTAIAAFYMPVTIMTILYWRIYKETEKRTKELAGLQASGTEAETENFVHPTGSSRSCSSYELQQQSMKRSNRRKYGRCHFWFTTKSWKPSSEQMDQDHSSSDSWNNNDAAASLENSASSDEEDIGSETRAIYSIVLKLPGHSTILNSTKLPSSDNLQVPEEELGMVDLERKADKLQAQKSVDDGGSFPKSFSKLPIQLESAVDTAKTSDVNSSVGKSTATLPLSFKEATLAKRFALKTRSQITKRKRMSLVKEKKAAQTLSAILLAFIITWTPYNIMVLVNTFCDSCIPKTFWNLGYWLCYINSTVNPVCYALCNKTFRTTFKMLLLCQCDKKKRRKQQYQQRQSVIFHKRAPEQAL

For `Cc1cccc(C(=O)N2CCC(N3CCC(Cc4ccc(S(=O)(=O)c5cccc(Cl)c5)cc4)CC3)CC2)c1N` [Example 7], the Ki at m5 stood at 84.5 nM; in test [1] it was 698 nM; in test [2] (membranes from stably transfected CHO cell lines, 3H-QNB, read-out: m1 Ki) it was 650 nM; in test [3] (membranes from stably transfected CHO cell lines, 3H-QNB, read-out: m4 Ki) it was 61.4 nM. In addition, the “Microdialysis Maximum % of baseline” value in the test with Acetylcholine (ACh) was 180 % of baseline.
As to `COc1ccc(S(=O)(=O)c2ccc(C3(C4CCN(C5CCN(C(=O)c6cccc(C)c6N)CC5)CC4)OCCO3)cc2)cc1` [Example 2], the “Microdialysis Maximum % of baseline” value in the test with Acetylcholine (ACh) was 194 % of baseline.
Still for that read-out and setting: next, `COc1ccc(S(=O)(=O)c2ccc(C3(C4CCN(C5CCN(C(=O)c6cccc(F)c6N)CC5)CC4)OCCO3)cc2)cc1` [Example 2F]: 186 % of baseline.
In the case of `Nc1ccccc1C(=O)N1CCC(N2CCC(Cc3ccc(S(=O)(=O)c4cccc(Cl)c4)cc3)CC2)CC1` [Example 7A], the “Microdialysis Maximum % of baseline” value in the test on Acetylcholine (ACh) was 150 % of baseline. The Ki in test [2] is 658 nM; in test [3], 33.3 nM.
For the molecule `Nc1cc(F)ccc1C(=O)N1CCC(N2CCC(C3(c4ccc(S(=O)(=O)c5cccc(Cl)c5)cc4)OCCO3)CC2)CC1` [Example 3E], in the test on Acetylcholine (ACh), the “Microdialysis Maximum % of baseline” value is listed as 188 % of baseline.
